Target: T1, human lipocalin-type prostaglandin D synthase (L-PGDS), wild type (Homo sapiens, UniProt P41222)
T1 construct: gene PTGDS; recombinant wild type, pNIC-CH vector, E. coli Rosetta 2 (DE3), Superdex 75 purified
T1 sequence (P41222 23-190): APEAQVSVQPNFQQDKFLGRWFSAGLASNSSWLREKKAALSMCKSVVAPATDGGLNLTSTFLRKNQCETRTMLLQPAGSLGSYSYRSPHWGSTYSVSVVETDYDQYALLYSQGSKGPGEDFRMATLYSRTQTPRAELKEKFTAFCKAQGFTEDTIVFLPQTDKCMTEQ
Test: ITC (reverse titration, L-PGDS into drug)
Conditions: read-out: Binding affinities and thermodynamic parameters / Kd^a
Excerpt: ITC (reverse titration, L-PGDS into drug) on human lipocalin-type prostaglandin D synthase (L-PGDS), wild type

Kd	Structure (SMILES)
6.5 ± 0.2 µM	O=c1n(CCCN2CCN(c3cccc(Cl)c3)CC2)nc2ccccn12 [TRD, Trazodone]
5.7 ± 0.2 µM	CN(C)CCC(c1ccc(Cl)cc1)c1ccccn1 (centres unmarked) [CPM, Chlorpheniramine]

— PMC7300299, “Anticholinergic Drugs Interact With Neuroprotective Chaperone L-PGDS and Modulate Cytotoxicity of Aβ Amyloids” (Frontiers in Pharmacology, 2020)
